In patent US10392443B2, “Diagnostic and therapeutic tool for cancer” (Agency for Science, Technology and Research, priority 2014, dated 2019):

System: MHCC-LM3 cells
Test: Fibronectin attachment with recombinant Agrin coat, Western blot
Type: cell-based, human
Details: Agrin depleted MHCC-LM3 cells; fibronectin supplemented with 20 μg/ml recombinant Agrin as ECM coat; 2 h post plating
Description: 72 h post transfections, cell lysates were analysed for indicated proteins; (b and c) show Western blot analysis of control or Agrin depleted MHCC-LM3 cells, which were serum starved overnight, trypsinized and plated on fibronectin or fibronectin supplemented with 20 μg/ml recombinant Agrin coated surface. […] Representative images under 20× magnification are shown and results quantitated using Image J software (P value=0.005). Thus, FIG. 6 validates the role of Agrin as an ECM sensor regulating focal adhesion, cell spreading and invasion to affect EMT program in HCC cell lines.
Briefly, culture plates were coated with 10 μg/ml fibronectin for 1 h at 37° C. Either control or Agrin knockdown cells (2*10^3 cells/ml) were trypsinized and plated on coated dishes. Adhered cells were analysed either by live cell imaging for morphological changes at indicated time-points or lysates were collected and subjected to Western blot analysis.

recombinant Agrin: Pure recombinant Agrin protein obtained from MyBiosource
activation of focal adhesion kinase and Arp2/3: substantially increased
